Measured values taken from paper PMC7560015, “Indoline-6-Sulfonamide Inhibitors of the Bacterial Enzyme DapE” (Antibiotics, 2020).
Read-outs that look alike come from different tables or passages of the source.

Legend:
HiDapE = biological target: T1, HiDapE (Haemophilus influenzae, UniProt P44514); experiment: ninhydrin-based DapE inhibition assay (N6-methyl-L,L-SDAP substrate); type: biochemical; settings: for IC50: from three or four % inhibition points, N-Me-SDAP substrate
T1 construct: His6 (cleaved yes); made in house
T1 sequence (P44514 whole entry): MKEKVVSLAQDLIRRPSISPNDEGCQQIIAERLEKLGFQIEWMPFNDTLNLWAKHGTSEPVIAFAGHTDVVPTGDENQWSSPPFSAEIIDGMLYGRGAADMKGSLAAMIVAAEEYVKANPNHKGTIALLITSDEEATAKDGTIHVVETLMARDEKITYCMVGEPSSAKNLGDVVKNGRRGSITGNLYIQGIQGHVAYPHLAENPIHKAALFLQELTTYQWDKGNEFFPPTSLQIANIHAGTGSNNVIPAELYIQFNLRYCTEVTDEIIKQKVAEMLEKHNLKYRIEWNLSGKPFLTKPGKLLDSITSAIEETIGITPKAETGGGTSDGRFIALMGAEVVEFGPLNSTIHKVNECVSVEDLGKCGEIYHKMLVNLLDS
Description: To conveniently measure the inhibitory potency of test compounds against DapE, we recently developed a ninhydrin-based assay employing the unnatural but well-tolerated substrate N^6-methyl-L,L-SDAP (1b). Enzymatic cleavage of 1b affords primary amine product 3b (Figure 1), which can be quantified spectrophotometrically following treatment with ninhydrin. Importantly, this assay avoids the significant background signal that would be produced by the reaction of the primary amine in native substrate 1a with ninhydrin. […]
DapE inhibition was measured according to the method previously described. In brief, the enzymatic activity of DapE was measured in triplicate at 570 nm by the Ruhemann’s purple complex formed through the reaction of the exposed primary amine and ninhydrin. To 175 µL of 50 mM HEPES (4-(2-hydroxyethyl)-1-piperazineethanesulfonic acid) buffer at pH 7.5 with 5 µL of 1µM DapE stock solution at 30 °C, 20 µL of 10 mM monomethyl SDAP ((2S,6S)-2-(3-carboxypropanamido)-6-(methylamino)heptanedioic acid) TFA salt was added. The reaction was allowed to proceed for 10 min and quenched by heating at 100 °C for 1 min and subsequently cooling on ice for 1 min. To the cooled reaction, 2% ninhydrin reagent in 100% DMSO (final volume 300 µL) was added and subsequently heated to 80 °C for 15 min. This was quenched by placing in ice water for 2 min, and the absorbance of an 80 µL aliquot was read at 570 nm via a microplate reader. These reactions were set as 100% standard enzyme activity of DapE.

[1] = solubility at assay concentration; type: physicochemical; settings: at 200 μM; insol. = insoluble
Description: The compounds synthesized along with their DapE inhibitory potencies measured using the N-Me-SDAP substrate are summarized in Table 1. We kept the N-acetyl group as well as the 5-halogen moiety constant in this first series while varying the sulfonamide N-substituent. […] Several derivatives had poor solubility, limiting the ability to test inhibition at higher concentrations.

[2] = tested on: DapE from Haemophilus influenza (HiDapE); settings: competitive inhibitor of HiDapE; cited from earlier work
DapE = DapE (Haemophilus influenzae, UniProt P44514); experiment: high-throughput screen of ~33,000 compounds for DapE inhibitors; type: biochemical; settings: read-out: % inhibition of DapE in high-throughput screen
DapE, sequence (P44514 whole entry): as above
Description: We were pleased that these two indoline hit structures provided mutual confirmation of one another. Furthermore, indolines are a privileged scaffold in medicinal chemistry, as there are several examples of indoline-containing drugs approved for a variety of treatments: advanced or transitional cell carcinoma of the urothelial tract (vinflunine), glaucoma and severe anticholinergic toxicity (physostigmine), and schizophrenia in adults (lumateperone), or are under investigation, as for benign prostatic hyperplasia (BPH). Furthermore, sulfonamides are pervasive in agrochemicals and in pharmaceuticals across therapeutic areas, and primary sulfonamides have recently been leveraged as versatile intermediates.

Row | IC50 (HiDapE) | melting point | Structure (SMILES) | also measured
1 |  |  | CC(=O)N1CCc2cc(Br)c(S(=O)(=O)NCC(C)C)cc21 [9a, 1-Acetyl-5-Bromo-N-Isobutylindoline-6-Sulfonamide] | inhibition at 200 µM (HiDapE): 20%
2 | 162 µM | 226 to 228 °C | CC(=O)N1CCc2cc(Br)c(S(=O)(=O)NC3CCCCC3)cc21 [9b, 1-Acetyl-5-Bromo-N-Cyclohexylindoline-6-Sulfonamide] | 
3 |  |  | CC(=O)N1CCc2cc(Br)c(S(=O)(=O)NC(C)(C)C)cc21 [9d, 1-Acetyl-5-Bromo-N-(Tert-Butyl)Indoline-6-Sulfonamide] | inhibition at 100 µM (HiDapE): 39%
4 | 118 µM | 190 to 193 °C | COC(=O)CCNS(=O)(=O)c1cc2c(cc1Br)CCN2C(C)=O [9f, Methyl 3-((1-Acetyl-5-Bromoindoline)-6-Sulfonamido)Propanoate] | 
5 | 82 µM | 190.9 to 191.7 °C | COC(=O)[C@@H](NS(=O)(=O)c1cc2c(cc1Br)CCN2C(C)=O)C(C)C [9g, Methyl ((1-Acetyl-5-Bromoindolin-6-yl)Sulfonyl)Valinate] | 
6 |  |  | COC(=O)[C@H](Cc1ccccc1)NS(=O)(=O)c1cc2c(cc1Br)CCN2C(C)=O [9h, Methyl ((1-Acetyl-5-Bromoindolin-6-yl)Sulfonyl)-L-Phenylalaninate] | inhibition at 200 µM (HiDapE): 61%
7 | 133 µM | 212 to 214 °C | CC(=O)N1CCc2cc(Br)c(S(=O)(=O)N3CCCCC3)cc21 [9i, 1-Acetyl-5-Bromo-6-(Piperidin-1-Sulfonyl) Indoline] | 
8 | 97 µM | 238 to 240 °C | CC(=O)N1CCc2cc(Br)c(S(=O)(=O)N3CCCC3)cc21 [9j, 1-Acetyl-5-Bromo-6-(Pyrrolidin-1-Sulfonyl) Indoline] | 
9 | 86 µM | 215 to 218 °C | CC(=O)N1CCc2cc(Br)c(S(=O)(=O)N3CCc4ccccc43)cc21 [9k, 1-Acetyl-5-Bromo-6-(Indolin-1-Sulfonyl) Indoline] | 
10 | 99 µM | 195 to 196 °C | CCN(CC)S(=O)(=O)c1cc2c(cc1Br)CCN2C(C)=O [9n, 1-Acetyl-5-Bromo-N,N-Diethylindoline-6-Sulfonamide] | 
11 | 54 µM |  | CC(=O)N1CCc2cc(Cl)c(S(=O)(=O)NCCC(C)C)cc21 [10a, 1-Acetyl-5-Chloro-N-Isopentylindoline-6-Sulfonamide] | fold more potent than corresponding 5-bromo derivative (HiDapE; 10a relative to 4): ~ 5 ×
12 | 44 µM | 199.7 to 201.4 °C | CC(=O)N1CCc2cc(Cl)c(S(=O)(=O)N3CCCCC3)cc21 [10c, 1-(5-Chloro-6-(Piperidin-1-Ylsulfonyl)Indolin-1-yl)Ethan-1-One] | fold more potent than corresponding 5-bromo derivative (HiDapE; 10c relative to 9i): ~ 3 ×
13 | 172 µM |  | CC(=O)N1CCc2cc(Cl)c(S(=O)(=O)N3CCCC3)cc21 [10d, 1-(5-Chloro-6-(Pyrrolidin-1-Ylsulfonyl)Indolin-1-yl)ethan-1-One] | 
14 | 88 µM |  | CCCN(CCC)S(=O)(=O)c1cc2c(cc1Cl)CCN2C(C)=O [10e, 1-Acetyl-5-Chloro-N,N-Dipropylindoline-6-Sulfonamide] | 
15 | > 200 µM | 93.2 to 94.4 °C | COCCN(CCOC)S(=O)(=O)c1cc2c(cc1Cl)CCN2C(C)=O [10f, 1-Acetyl-5-Chloro-N,N-bis(2-Methoxyethyl)Indoline-6-Sulfonamide] | 
16 |  |  | C[C@H](CS)C(=O)N1CCC[C@H]1C(=O)O [captopril] | IC50 [2]: 3.3 µM
17 | > 200 µM | 190 to 191 °C | CC(=O)N1CCc2cc(Br)c(S(=O)(=O)NCCC(C)C)cc21 [compound 4, 1-Acetyl-5-Bromo-N-Isopentylindoline-6-Sulfonamide] | inhibition at 200 µM (HiDapE; at 200 μM, single concentration, read-out: % Inhibition): 42%; inhibition at 12 µM (DapE; at 12 μM, arbitrary hit cutoff): > 20%
18 |  |  | CC(=O)N1CCc2cc(Br)c(S(=O)(=O)N3CC(C)CC(C)C3)cc21 (stereo not shown) [compound 5] | inhibition at 12 µM (DapE): > 20%

Row | Structure (SMILES) | IC50 (HiDapE) | melting point | also measured
19 | CC(=O)N1CCc2cc(Br)c(S(=O)(=O)NCc3ccccc3)cc21 [9c, 1-Acetyl-N-Benzyl-5-Bromoindoline-6-Sulfonamide] |  | 205 to 208 °C | inhibition at 200 µM (HiDapE): 56%
20 | COC(=O)CNS(=O)(=O)c1cc2c(cc1Br)CCN2C(C)=O [9e, 1-Acetyl-5-Bromoindolin-6-(Sulfonyl Glycine Methyl Ester)] |  | 179 to 182 °C | DapE inhibitory potency in words (HiDapE): nearly inactive; inhibition at 200 µM (HiDapE): 17%
21 | CCCN(CCC)S(=O)(=O)c1cc2c(cc1Br)CCN2C(C)=O [9l, 1-Acetyl-5-Bromo-N,N-Dipropylindoline-6-Sulfonamide] |  | 118 to 120 °C | DapE inhibitory potency in words (HiDapE): significantly less potent; inhibition at 20 µM (HiDapE): 5%; solubility in the DapE assay [1]: insol.
22 | COCCN(CCOC)S(=O)(=O)c1cc2c(cc1Br)CCN2C(C)=O [9m, 1-Acetyl-5-Bromo-N,N-bis(2-Methoxyethyl)Indoline-6-Sulfonamide] |  | 110 to 111 °C | DapE inhibitory potency in words (HiDapE): significantly less potent; inhibition at 100 µM (HiDapE): 26%
23 | CC(=O)N1CCc2cc(Cl)c(S(=O)(=O)NC3CCCCC3)cc21 [10b, 1-Acetyl-5-Chloro-N-Cyclohexylindoline-6-Sulfonamide] |  | 230 to 230.5 °C | inhibition at 200 µM (HiDapE): 58%
